From patent US7244595B2, “Method of maintaining or improving a nitrile hydratase activity” (priority 2003, dated 2007)
Several values for one entry are separate records, joined by “and”; a condition that tells them apart may be missing. Equal entries are not always repeated.

Assays:
nitrile hydratase [1] = target: T1, nitrile hydratase (Pseudonocardia thermophila, UniProt Q7SID2+Q7SID3); assay: Nitrile hydrating activity (acrylamide formed) of wet microorganism contacted with an oxidizing agent in deoxidized water; assay type: cell-based, Escherichia coli HB101 (MT-10822 strain); set-up: expressed in transfected cells; host or cells: Escherichia coli HB101 (transformant MT-10822, FERM BP-5785), IPTG-induced
T1 sequence (Q7SID2 whole entry): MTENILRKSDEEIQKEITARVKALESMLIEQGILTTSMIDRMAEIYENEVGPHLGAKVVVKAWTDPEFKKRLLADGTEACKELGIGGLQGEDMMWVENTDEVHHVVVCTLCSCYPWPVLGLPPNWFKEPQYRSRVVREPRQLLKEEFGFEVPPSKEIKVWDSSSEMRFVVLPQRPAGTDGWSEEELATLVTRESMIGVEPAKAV
T1 sequence (Q7SID3 whole entry): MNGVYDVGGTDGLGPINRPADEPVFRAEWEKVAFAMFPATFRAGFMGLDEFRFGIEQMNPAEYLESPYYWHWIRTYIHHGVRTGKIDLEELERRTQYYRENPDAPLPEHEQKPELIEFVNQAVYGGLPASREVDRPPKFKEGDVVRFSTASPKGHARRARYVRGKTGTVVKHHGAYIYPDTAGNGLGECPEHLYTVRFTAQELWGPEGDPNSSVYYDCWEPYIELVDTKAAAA
Experimental: (§1) In HPLC analysis of a reaction solution in the Examples, ULTRON 80HG (50×8 φmm) was used as an HPLC column, and 10 mM aqueous phosphate solution was used as a developing solution. Acrylamide and acrylonitrile were detected by absorbance at 220 nm to determine their concentrations.
The resulting microorganism, 0.20 g, was suspended in previously deoxidized pure water in a 100 ml sealable glass container previously sufficiently purged with nitrogen, and potassium ferricyanide was added and suspended as an oxidizing agent at a final concentration shown in Table 1 to give 20.00 g suspension. Separately, an oxidizing agent-free microbial suspension was prepared in the same manner. The microbial suspension was kept at 20° C. for 15 minutes under stirring.
(§2) The reaction was terminated by adding 80 g of 10 mM aqueous phosphoric acid, and then the concentration of acrylamide in the reaction solution was determined by HPLC analysis. Subsequently, the concentration of the microbial suspension based on the dry weight of the microorganism was determined, and then the amount of formed acrylamide per unit dry weight of the microorganism was calculated.
The amount of acrylamide formed per unit dry weight of the microorganism was determined in the same manner as in Example 3 except that in place of potassium ferricyanide, ammonium persulfate was added and suspended as an oxidizing agent at a concentration shown in Table 1.
The microbial suspension was kept at 20° C. under stirring. 0 minute, 10 minutes, 2 hours and 24 hours after the stirring was initiated, a small amount of the microbial suspension was collected, and the amount of formed acrylamide per unit dry weight of the microorganism was determined in the same manner as in Example 3.
Separately, a microbial suspension wherein the oxidizing agent was not added and the pH value was not adjusted was also prepared in the same manner. The microbial suspension was kept at 20° C. for 15 minutes under stirring. The amount of formed acrylamide per unit dry weight of the microorganism was determined in the same manner as in Example 3.
Separately, a microbial suspension wherein the oxidizing agent was not added was also prepared in the same manner. The amount of formed acrylamide per unit dry weight of the microorganism was determined in the same manner as in Example 3.

nitrile hydratase [2] = target: T1, nitrile hydratase
Experimental: as §1, §2
A wet microorganism was obtained in the same manner as in Example 3. […] The suspension was kept at 10° C. under stirring, while the air (40 N-ml/min.) was passed through the gaseous phase in the flask. 0, 1, 2, 3, 7 and 19 days after storage, a part of the microbial suspension was removed. […] The amount of formed acrylamide in each of the collected microbial suspensions per unit dry weight of the microorganism was determined in the same manner as in Example 3.
A wet microorganism was obtained in the same manner as in Example 3. […] The amount of formed acrylamide in each of the collected microbial suspensions per unit dry weight of the microorganism was determined in the same manner as in Example 3.

nitrile hydratase [3] = target: T1, nitrile hydratase; remark: listed apart in the source
Experimental: as §1
MT-10822 strain (FERM BP-5785, see JP-A 11-253168) having a nitrile hydratase gene introduced into Escherichia coli HB101, deposited by Mitsui Chemicals, Inc., was used as the nitrile hydratase-containing cell in this example.
For culture of this microbial strain, 15.0 L medium having the following composition was prepared in a 30 L culture container and sterilized with high-pressure steam at 121° C. for 20 minutes. Ampicillin was added at a final concentration of 50 μg/ml to this medium, and the microbial strain was inoculated via a platinum loop thereto and cultured at 37° C. at 700 rpm for 20 hours. […]
The reaction was terminated by adding 80 g of 10 mM aqueous phosphoric acid, and then the concentration of acrylamide in the reaction solution was determined by HPLC analysis. Subsequently, the concentration of the microbial suspension was determined on the basis of the dry weight of the microorganism, and then the amount of formed acrylamide per unit dry weight of the microorganism was calculated. […]

N.N.O=S(=O)(O)OOS(=O)(=O)O [AMMONIUM PERSULFATE, ammonium persulfate]
AMOUNT OF […] (RELATIVE VALUE) (nitrile hydratase [1]): 1.6 relative value
nitrile hydrating activity of the nitrile hydratase on contact of the microorganism with the oxidizing agent (in words) (nitrile hydratase [1]): improved

OO [HYDROGEN PEROXIDE, hydrogen peroxide]
AMOUNT OF […] (RELATIVE VALUE) (nitrile hydratase [1]): 2.4 relative value
nitrile hydrating activity of the nitrile hydratase on contact of the microorganism with the oxidizing agent (in words) (nitrile hydratase [1]): improved

O=O [oxygen]
nitrile hydrating activity of the nitrile hydratase on contact with oxygen, depending on the contact time (in words) (nitrile hydratase [2]): improved depending on the contact time
amount of formed acrylamide per unit dry weight of the microorganism (0 hour of storage = 1) (nitrile hydratase [3]): 1.1 and 1.0
